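Step 1: Grow cells in 96-well plates. Step 2: Expose to compound for 48 hours at 5 concentrations. Step 3: Interpolate endpoints linearly; if unreached, use highest concentration. The concentration for full growth arrest is given as TGI.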
Experiments:
Assay in all cases: NCI anticancer screen, dose series, 48 h
OVCAR-4 ovarian = system: OVCAR-4 ovarian
LOX IMVI melanoma = system: LOX IMVI melanoma
NCI-H226 lung = system: NCI-H226 lung
MDA-MB-231 breast = system: MDA-MB-231 breast
HS 578T breast = system: HS 578T breast
HL-60(TB) leukemia = system: HL-60(TB) leukemia
A498 renal = system: A498 renal
NCI-H460 lung = system: NCI-H460 lung
HOP-62 NSCLC = system: HOP-62 NSCLC
MALME-3M melanoma = system: MALME-3M melanoma
U251 CNS = system: U251 CNS
BT-549 breast = system: BT-549 breast
UO-31 renal = system: UO-31 renal
SF-539 CNS = system: SF-539 CNS
NCI-H522 lung = system: NCI-H522 lung
EKVX NSCLC = system: EKVX NSCLC
SK-MEL-5 melanoma = system: SK-MEL-5 melanoma
SNB-75 CNS = system: SNB-75 CNS
M14 melanoma = system: M14 melanoma
UACC-62 melanoma = system: UACC-62 melanoma
CAKI-1 renal = system: CAKI-1 renal
MOLT-4 leukemia = system: MOLT-4 leukemia
OVCAR-3 ovarian = system: OVCAR-3 ovarian
HCT-116 colon = system: HCT-116 colon
NCI-H23 lung = system: NCI-H23 lung
IGROV1 ovarian = system: IGROV1 ovarian
SW-620 colon = system: SW-620 colon
HCT-15 colon = system: HCT-15 colon
T-47D breast = system: T-47D breast
786-0 renal = system: 786-0 renal
HOP-92 NSCLC = system: HOP-92 NSCLC
SK-MEL-28 melanoma = system: SK-MEL-28 melanoma
SR leukemia = system: SR leukemia
RXF 393 renal = system: RXF 393 renal
K-562 leukemia = system: K-562 leukemia
DU-145 prostate = system: DU-145 prostate
SF-268 CNS = system: SF-268 CNS
TK-10 renal = system: TK-10 renal
MCF7 breast = system: MCF7 breast
SN12C renal = system: SN12C renal
ACHN renal = system: ACHN renal
SNB-19 CNS = system: SNB-19 CNS
COLO 205 colon = system: COLO 205 colon
SK-MEL-2 melanoma = system: SK-MEL-2 melanoma
PC-3 prostate = system: PC-3 prostate
RPMI-8226 leukemia = system: RPMI-8226 leukemia
KM12 colon = system: KM12 colon
CCRF-CEM leukemia = system: CCRF-CEM leukemia
OVCAR-5 ovarian = system: OVCAR-5 ovarian
A549 NSCLC = system: A549 NSCLC
MDA-N = system: MDA-N
MDA-MB-435 = system: MDA-MB-435
SK-OV-3 ovarian = system: SK-OV-3 ovarian
HT29 colon = system: HT29 colon
NCI/ADR-RES ovarian = system: NCI/ADR-RES ovarian
UACC-257 melanoma = system: UACC-257 melanoma
OVCAR-8 ovarian = system: OVCAR-8 ovarian
SF-295 CNS = system: SF-295 CNS

Measured: TGI

CC1(C)CCCOc2cccc(c2)OCCCC(C)(C)C1=O
70.3 µM: MALME-3M melanoma
35.8 µM: SK-MEL-5 melanoma
99.1 µM: HOP-92 NSCLC
67.3 µM: NCI-H522 lung
82.9 µM: NCI-H226 lung
73.6 µM: UACC-62 melanoma
48.5 µM: RXF 393 renal
89.3 µM: BT-549 breast
44.2 µM: CCRF-CEM leukemia
43.2 µM: HT29 colon
69.1 µM: OVCAR-3 ovarian
37.1 µM: MOLT-4 leukemia
54.9 µM: SK-MEL-2 melanoma
not listed: UACC-257 melanoma | OVCAR-8 ovarian | SF-295 CNS
> 100 µM: all other assays above

CCCC(=O)OCC1OC(n2cc(F)c(=O)[nH]c2=O)C(F)C1OC(=O)CCC (configuration not stated)
27.5 µM: SF-539 CNS
not listed: SNB-19 CNS
> 100 µM: all other assays above

— PubChem BioAssay (NCI)
